{
  "source": "paper PMC7393355",
  "about": "“A FRET-based screening method to detect potential inhibitors of the binding of CNNM3 to PRL2” (Scientific Reports, 2020)",
  "key": {"[1]": {"system": "binding of CNNM3-YPet and CyPet-PRL2 (CNNM3-PRL2 complex)", "experiment": "FRET-based inhibition test of the binding of CNNM3-YPet and CyPet-PRL2", "set-up": "species or system human", "settings": "CNNM3-YPet 200 nM, CyPet-PRL2 200 nM, n = 6", "procedure": "FRET measurements were conducted in TBS (50 mM Tris–HCl (pH 8.0) and 150 mM NaCl). Proteins were mixed in 96-well plates and incubated at R.T. for 1 h. Fluorescence intensities were measured using an excitation wavelength of 435 nm and an emission wavelength of 530 nm with a Cytation 3 (BioTek).\nThe emission spectra were measured with each component at 200 nM using the Cytation 3 (BioTek) with 435 nm excitation (Supplementary Fig. 2), and the original data are shown in Supplementary Table 1. The FRET intensity was calculated by Eq. (1).1 IFRET=IA-raw-Dleakage-Adirect where IA-raw is the intensity measured at 530 nm with 435 nm excitation, Dleakage is the leakage of the donor emission into the acceptor wavelength (530 nm) upon donor excitation, and Adirect is the direct excitation of the acceptor with the donor wavelength (435 nm).\nThe inhibition of complex formation was assayed by pre-incubating the binding partner (200 nM) with inhibitory factors (1, 10 μM) for 20 min at R.T., followed by addition of the other protein (200 nM) (Figs. 3B, 4C). The effects of divalent cations (10 mM) and nucleotides (3 mM) were also assayed similarly (Fig. 5).\nThe peptides for the peptide inhibition test were synthesized by Shanghai Dechi Biosciences (Fig. 6C,D). The peptide sequences were as follows: peptide 1, IVQKVNNEGEGDPFYEVLG; peptide 2, […] (an S–S bond was formed between the cysteine residues, as verified by HPLC and mass spectrometry). The peptides were dissolved in TBS buffer at 10 mM before use.\nFRET data were evaluated by subtracting backgrounds (fluorescence intensities of CyPet-PRL2, CNNM3-YPet and a blank well). All data analysis was performed using GraphPad Prism 6 (GraphPad Software) with the methods described in each legend."}, "PRL2": {"system": "PRL2", "experiment": "Isothermal titration calorimetry (ITC) with PRL2", "format": "binding, human", "settings": "25 °C, cell 20 μM PRL2, syringe 200 μM ligand, 20 mM Tris-HCl pH 7.0, 50 mM NaCl, 1 mM TCEP, 2% DMSO, repeated twice", "procedure": "ITC experiments were performed by ITC200 (GE Healthcare, USA). PRL2 and CNNM3 CBS domain proteins were purified in Buffer A (20 mM Tris–HCl (pH 7.0), 50 mM NaCl, and 1 mM TCEP). JMS-053 (Aobious, USA) was dissolved in 100% DMSO at 10 mM, further diluted to 200 μM with Buffer A. The ITC cell was thermally equilibrated at 25 °C and then filled with 250 μl of 20 μM PRL2, while the syringe was filled with 40 μl of 200 μM JMS-053 or CNNM3 CBS protein. In the case of JMS-053, 2% DMSO at a final concentration was added into PRL2 protein solution. Data were analysed by Microcal Origin software."}},
  "data": [
    {"molecule": "Nc1ncnc2c1ncn2[C@@H]1O[C@H](COP(=O)(O)OP(=O)(O)O)[C@@H](O)[C@H]1O", "note": "[ADP, reference compound]", "values": [
      {"measurement": "alteration of FRET intensity by nucleotide", "setting": "[1]; 3 mM nucleotide", "result": 9.6, "unit": "%"}
    ]},
    {"molecule": "N=C1C(=O)NC(=O)c2cc(-c3ccccc3)sc21", "note": "[JMS-053, reference compound]", "values": [
      {"measurement": "interaction with PRL2 by ITC (in words)", "setting": "PRL2", "result": "no interaction"},
      {"measurement": "effect on the interaction between CNNM3 and PRL2 (in words)", "setting": "[1]", "result": "no effect"}
    ]},
    {"molecule": "[Mg+2]", "note": "[Mg^2+]", "values": [
      {"measurement": "effect of divalent cation on FRET intensity (in words)", "setting": "[1]; 10 mM divalent cation", "result": "no effect on the FRET intensity"}
    ]},
    {"molecule": "[Zn+2]", "note": "[Zn^2+]", "values": [
      {"measurement": "decrease of FRET intensity by divalent cation", "setting": "[1]; 10 mM divalent cation", "result": 90.3, "unit": "%"}
    ]},
    {"molecule": "IVQKVNNEGEGDPFYEVLG [peptide 1, shorter synthesized peptide derived from the CNNM CBS loop]", "values": [
      {"measurement": "effect of peptide on complex formation (in words)", "setting": "[1]; peptide 100 μM", "result": "failed to interrupt complex formation"}
    ]},
    {"molecule": "LAICQRVNNEGEGDPFYEVCGIVT (an S–S bond was formed between the cysteine residues (disulfide) [peptide 2, longer CNNM CBS loop peptide with two residues mutated to cysteine to form an S–S bond]", "values": [
      {"measurement": "inhibition of complex formation", "setting": "[1]; peptide 100 μM", "result": 20, "unit": "%"},
      {"measurement": "inhibition of complex formation", "setting": "[1]; peptide 500 μM", "result": 50, "unit": "%"}
    ]}
  ]
}
